In patent US6506745B1, “Medicinal compositions for treatment of atrial fibrillation” (Noboru Kaneko, priority 1998, dated 2003):

What was measured:
[1] = test system: atrial fibrillation induced by means of electrical stimulation; assay: Atrial fibrillation induced by electrical stimulation in chronically paced right atrium; assay type: in vivo, hybrid of a labrador and beagle
From the text: In the experimental test, a hybrid of a labrador and beagle was used. An electrode for electrical excitation was embedded in the right atrium. From a week after the operation, the right atrium was subjected to a continuous pacing at an excitation frequency of 400 or 600 bpm by an external pacemaker. Further, for 31 day, the right atrium was subjected to a pacing giving a burst excitation (10 mA,50 Hz,1 sec) 5 days a week and several hours a day. Compound 1 was continuously injected into forearm vein (0.3mg/kg/min×2 min+0.03 mg/kg/min). At 20 minutes before and after administrating, the excitation current (50 Hz, 1 sec) was increased from 3 mA to 10 mA in increments of 0.5 mA to determine each atrial fibrillation threshold (AFT). Then, the atrial fibrillation duration (AF duration) and the interval (FF interval) of atrial fibrillation waves, which were generated by the excitation current of 10 mA, were measured. In FIG. 1, the mean value of the AF duration before administration was 35.1±9.0 sec, and the mean value after administration was 12.1±1.9 sec. In FIG. 2, the mean value of the FF interval before administration was 51.3±1.7 msec, and the mean value after administration was 61.7±1.8 msec.

right atrial muscle = assay: Active potential duration (APD90) of isolated right atrial muscle under electrical stimulation; assay type: cell-based, beagle; settings: 90 minutes after adding
Experimental: A beagle was used in the experimental test. Its right atrial. muscle was surgically extracted, and a sample was fixed with pins within an experimental vessel which is perfused with Tyrode liquid (10 ml/min). Using an electrical stimulator, the atrial muscle was stimulated by a voltage two times greater than that of generating an active potential, and rectangular waves having pulse. width of 2 msec in a frequency of 2 Hz, and the generated active potential was measured by a glass microelectrode inserted into the cells. Compound 1 was added into the experimental vessel with condensations of 0.3 μM and 1 μM. At 90 minutes before and after adding the compound, the sample was excited with various excitation frequencies, and each active potential was recorded to. determine the duration (90% recovery time; APD90).

`COc1ccc2c(c1)CN(C(=O)CCN1CCC(Cc3ccccc3)CC1)CCS2` [Compound 1, 4-[3-(4-benzylpiperidine-1-yl)propionyl]-7-methoxy-2,3,4,5-tetrahydro-1,4-benzothiazepine] was tested, and the “atrial fibrillation duration (AF duration), mean value after administration” value ([1]; i.v. 0.3 mg/kg/min x 2 min + 0.03 mg/kg/min, 20 minutes after administrating, excitation current 10 mA, before administration 35.1±9.0 sec) was 12.1 ± 1.9 s, the “interval of atrial fibrillation waves (FF interval), mean value after administration” value ([1]; i.v. 0.3 mg/kg/min x 2 min + 0.03 mg/kg/min, 20 minutes after administrating, excitation current 10 mA, before administration 51.3±1.7 msec) was 61.7 ± 1.8 ms and the “atrial fibrillation threshold (AFT) after administration” value ([1]; i.v. 0.3 mg/kg/min x 2 min + 0.03 mg/kg/min, 20 minutes after administrating, increased from 7 mA before) was 10 mA. The “extension of FF interval after administration” value ([1]; i.v. infusion, excitation current 10 mA, FIG. 2) was “about 20%”, the “duration (APD90) change after addition” value (right atrial muscle; 0.3 μM, excitation frequency 0.67 Hz) was 106.0 ± 2.01% and the “duration (APD90) change after addition” value (right atrial muscle; 0.3 μM, excitation frequency 1 Hz) was 110.1 ± 2.75%. For the same compound, the “duration (APD90) change after addition” value (right atrial muscle; 0.3 μM, excitation frequency 2 Hz) was 113.0 ± 1.48%, the “duration (APD90) change after addition” value (right atrial muscle; 0.3 μM, excitation frequency 3.33 Hz) was 111.5 ± 10.52% and the “duration (APD90) change after addition” value (right atrial muscle; 1 μM, excitation frequency 0.67 Hz) was 112.9 ± 6.47%. The “duration (APD90) change after addition” value (right atrial muscle; 1 μM, excitation frequency 1 Hz) was 111.3 ± 5.34%, the “duration (APD90) change after addition” value (right atrial muscle; 1 μM, excitation frequency 2 Hz) was 118.1 ± 2.88% and the “duration (APD90) change after addition” value (right atrial muscle; 1 μM, excitation frequency 3.33 Hz) was 124.7 ± 9.40%.
